Experiment: gradient 5% acetonitrile 3 min, to 50% in 2 min, to 85% in 15 min, held 3 min, 100 µL/min
Conditions: column: Zorbax Extend-C18 2.1 x 50 mm; eluents: water / acetonitrile, 0.1% formic acid
Procedure, shortened: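 Each retention time is based on an adduct peak selected computationally and verified by manual inspection. Measurements used HPLC–quadrupole time-of-flight mass spectrometry in positive and negative ionization mode on mixtures of ~100 pure standards. Chromatography ran on a Zorbax Extend-C18 column (2.1 × 50 mm, 1.8 μm) at 100 μL/min with water and acetonitrile, each containing 0.1% formic acid, and dead and dwell volumes of 40 μL and 900 μL.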

Row | RP-LC retention time | Compound
1 | 806 s | Cc1ccc(-c2cc3c(=O)n(Cc4noc(CN5CCCCCCC5)n4)ccn3n2)cc1C
2 | 659 s | O=C(Nc1ccc(-n2cnnn2)cc1)C1CN(c2nc3ccccc3s2)C1
3 | 826 s | Cc1cccnc1NC(=O)Nc1c[nH]c2ccccc12
4 | 1060 s | CCc1nc(-c2csc(S(=O)(=O)N3CCCC(C(=O)Nc4ccccc4CC)C3)c2)no1 (centres undefined)
5 | 582 s | COc1ccc(CC(=O)NCC2(CO)CC2)cc1OC
6 | 712 s | CSc1ncccc1-c1nnc(C)o1
7 | 756 s | O=C(CSc1nc(-c2cccc([N+](=O)[O-])c2)cs1)N1CCOCC1
8 | 805 s | Cc1cccc(C(=O)N2CCC3(CC2)NC(=O)c2cc(C)ccc2N3C)c1
9 | 631 s | O=C(c1ccco1)N1CCN(C(=O)C2CCN(c3nc4ccccc4[nH]c3=O)CC2)CC1
10 | 736 s | COc1ccc(-c2nnc(SCC(=O)Nc3ccc(S(N)(=O)=O)cc3)o2)cc1
11 | 1170 s | CCOc1ccccc1CNC(=O)C1CCN(c2nccnc2Sc2cccc(C)c2)CC1
12 | 647 s | CCOC(=O)[C@H](CCc1ccccc1)N[C@@H](C)C(=O)N1CCC[C@@H]1C(=O)O
13 | 1220 s | CCOC(=O)c1noc2nc(C)nc(N3CCN(c4cccc(Cl)c4)CC3)c12
14 | 735 s | Cn1nnc(-c2ccc(-c3ccc(N4C[C@@H](CO)OC4=O)cc3F)cn2)n1
15 | 842 s | COc1ccccc1-c1noc(C2CCCN2C(=O)Nc2ccc(F)cc2)n1 (centres undefined)
16 | 731 s | O=C(c1ccc(Cl)s1)N1CC(F)(F)C[C@H]1COc1cccnc1
17 | 734 s | CC(C)NC(=O)c1ccc(OCC2CCCN2C(=O)c2ccc(C#N)cc2)cc1 (centres undefined)
18 | 656 s | Cc1ccc(CNC(=O)Cn2c(=O)c(=O)n(C)c3ncccc32)o1
19 | 602 s | O=C(CCn1nnc2cc(S(=O)(=O)N3CCCC3)ccc21)N1CCN(c2ccccn2)CC1
20 | 831 s | O=C(Cc1ccccc1Br)NC1CCN(c2cc(-c3ccc(Cl)cc3)[nH]n2)C1 (centres undefined)
21 | 1150 s | Cc1sc(-c2nc(C(C)C)cs2)cc1S(=O)(=O)NCc1cccs1
22 | 603 s | O=C(NC1CCCN(c2cc(-c3ccncc3)[nH]n2)C1)c1ccc2c(c1)OCO2 (centres undefined)

Row | RP-LC retention time | Compound
23 | 713 s | O=C(NCc1ccc(Cl)cc1)C1CCN(c2cnc3nccnc3c2)CC1
24 | 696 s | COCCN1C(=O)[C@H]2CN(Cc3cc(Cl)ccc3F)C[C@H]2C1=O
25 | 554 s | O=C(CNC(=O)c1ccncc1)Nc1nc2ccccc2[nH]1
26 | 1050 s | COc1cc(F)c(F)c(Nc2ccc(I)cc2F)c1NS(=O)(=O)C1(C[C@H](O)CO)CC1
27 | 1030 s | Cc1ccc(Cl)cc1NC(=O)N1CCc2nc(-c3ccc(F)cc3)ncc2C1
28 | 567 s | Cc1ccc(-n2nc3c(N4CCCC(C(=O)NCCN5CCN(C)CC5)C4)nnc(C)c3c2C)cc1 (centres undefined)
29 | 607 s | NC(=O)c1cc(N2CCCC2)nc2c(Cl)cccc12
30 | 935 s | COc1ccc(OC)c(CNS(=O)(=O)c2cc(-c3cnn4c(C)cc(C)nc34)ccc2OC)c1
31 | 798 s | COC(=O)c1scc(-c2ccc(C)cc2)c1S(=O)(=O)N1CCC(C(N)=O)CC1
32 | 656 s | O=C(Nc1nc(C(=O)N2CCN(C(=O)c3ccco3)CC2)co1)c1ccsc1
33 | 652 s | O=C(NCCN1CCOCC1)C1CCCN(c2nccnc2Sc2ccccc2)C1 (centres undefined)
34 | 902 s | O=S(=O)(NCC(O)C1CCCCC1)c1cccc2ccccc12 (centres undefined)
35 | 1110 s | Cc1nn(-c2ccc(F)cc2)c2nc(N3CCCC(C(=O)NCc4ccc(F)cc4)C3)sc12 (centres undefined)
36 | 788 s | O=C(C1=CN(c2cccc(Br)c2)c2ccccc2S1(=O)=O)N1CCOCC1
37 | 983 s | O=C(NC1CCCCCC1)C1CCCN(C(=O)Cc2cccc3ccccc23)C1 (centres undefined)
38 | 583 s | Cc1cc(C(=O)NCCCN2CCOCC2)c2cc(Br)ccc2n1
39 | 752 s | CN1C(=O)C2(CCN(C(=O)Nc3ccc4c(c3)OCO4)C2)c2ccccc21 (centres undefined)
40 | 560 s | Cc1cccc2c(C(N)=O)c3c(nc12)CCC3
41 | 809 s | COc1cc(CNC(=O)c2cccc3c2CCN3C(=O)C2CC2)cc(OC)c1
42 | 689 s | Cc1nc(-c2noc(-c3ccncc3)n2)cn1CC(=O)N1CCN(c2ccc(F)cc2)CC1
43 | 842 s | COc1ccc(NS(=O)(=O)c2cc(-c3noc(C(=O)N4CCCC4)n3)sc2C)cc1OC
44 | 977 s | CC(C)n1cc(S(=O)(=O)NCc2ccccc2C(F)(F)F)c2cccnc21

Row | RP-LC retention time | Compound
45 | 583 s | CN1CCN(CCCNC(=O)CCC(=O)N2CCCn3nc(-c4cn(C)c5ccccc45)cc32)CC1
46 | 653 s | CCC(C)C1Nc2ccc(C(=O)NCCCOC)cc2NC1=O (centres undefined)
47 | 620 s | CC(C)CC(=O)Nc1ccc(-n2cnc(C(=O)N3CCN(C4CCCCC4)CC3)c2)nc1
48 | 554 s | COCC(=O)Nc1cnc(-c2cccnc2)nc1
49 | 639 s | CCCN1CCN(CCNC(=O)C2CCCN(c3ncc(-c4ccccc4)cn3)C2)CC1 (centres undefined)
50 | 729 s | Cc1ccc(S(=O)(=O)Nc2cc(-c3cn4cccc(C)c4n3)ccc2C)cc1C
51 | 932 s | Cc1ccc2ncn(C3CCN(S(=O)(=O)c4cc(F)cc(F)c4)CC3)c(=O)c2c1
52 | 812 s | Cc1nc(C2CN(S(=O)(=O)c3ccccc3F)CC23CCOCC3)no1 (centres undefined)
53 | 700 s | CCS(=O)(=O)N1CCCc2cc(C(=O)NCCCOC)ccc21
54 | 733 s | Cc1ccc(C2Cn3nnc(C(=O)N4CCC(C(=O)NC5CC5)CC4)c3CO2)cc1 (centres undefined)
55 | 1140 s | Cc1ccc(C(=O)N2CCN(c3nc4ccccc4n(CC(C)C)c3=O)CC2)s1
56 | 559 s | Cn1ncc2c(N3CCSCC3)nc(C(=O)NCCc3ccncc3)nc21
57 | 545 s | Cc1cc(N(C)C)nc(NCCNC(=O)C2CCCC2)n1
58 | 1020 s | CC(C)c1ccc(S(=O)(=O)c2cnc(N3CCC4(CC3)OCCO4)nc2N)cc1
59 | 664 s | O=C(C1=NNc2cc(Cl)ccc2S1(=O)=O)N1CCOCC1
60 | 600 s | COc1ccc(N2CC(c3nc4ccccc4n3CCN3CCOCC3)CC2=O)cc1 (centres undefined)
61 | 830 s | CCOC(=O)c1nn(-c2ccccc2)cc1O
62 | 774 s | CCOC(=O)c1c(C)[nH]c(C)c1S(=O)(=O)N1CCC(C(=O)Nc2ccc3c(c2)OCO3)CC1
63 | 983 s | Cc1cccc(CNS(=O)(=O)c2ccc(-c3c(C)noc3C)cc2)c1
64 | 748 s | CCC(C)NC(=O)C1CCN(C(=O)Nc2ccc(NC(=O)Nc3ccccc3)cc2)CC1 (centres undefined)
65 | 555 s | Cc1cc(N2CCCCCC2)n2nc(CN3CCN(C(C)C)CC3)nc2n1
66 | 853 s | COc1ccccc1C1(CNC(=O)CSc2ccc(F)cc2)CCOCC1

Row | RP-LC retention time | Compound
67 | 591 s | O=S(=O)(Cc1ccccc1Cl)NCCN1CCN(c2ccc(F)cc2)CC1
68 | 842 s | O=C(CN1C(=O)C(C(=O)N2CCCC2)Sc2ccccc21)N1CCN(c2ccccc2)CC1 (centres undefined)
69 | 643 s | CC(=O)N(C1CC1)C1CCOC2(CCN(C(=O)c3sc(C)nc3C)CC2)C1 (centres undefined)
70 | 652 s | NS(=O)(=O)c1ccc(NC(=O)CSc2nnc3ccc4ccccc4n23)cc1
71 | 893 s | Cn1nc(-c2nc(C3CC3)no2)c2c1CCN(C(=O)c1ccc(Br)cc1)C2
72 | 872 s | O=C(Nc1cccc(C(F)(F)F)c1)c1ccc(-n2cnc(NC(=O)C3CC3)c2)cc1
73 | 654 s | Cc1nncn1C1CCN(S(=O)(=O)c2ccccc2F)CC1
74 | 761 s | COc1ccc(CC(=O)Nc2nnc(C3CC(=O)N(c4ccc(Cl)cc4)C3)o2)cc1 (centres undefined)
75 | 945 s | Nc1nc(-c2ccc(Cl)cc2)nn1C(=O)C1CC1
76 | 900 s | COC(=O)C1=CN(c2cccc(C(F)(F)F)c2)c2ccccc2S1(=O)=O
77 | 629 s | COc1ccc(/C=C/c2nc(C#N)c(NCCCN(C)C)o2)cc1OC
78 | 784 s | O=C(Cc1ccccc1F)NC(c1ccccc1)c1nnc(N2CCCC2)o1 (centres undefined)
79 | 967 s | COC(=O)c1ccc2c(=O)n(-c3ccc(F)c(Cl)c3)c(N3CCOCC3)nc2c1
80 | 971 s | COc1cc(OC)cc(C(=O)N2CCN(c3nc4ccccc4cc3-c3noc(C)n3)CC2)c1
81 | 754 s | CCCCNC(=O)C1CCCN(C(=O)c2[nH]c(C)c(C(=O)OC(C)C)c2C)C1 (centres undefined)
82 | 675 s | O=C(CSc1nnc2scc(-c3ccc(Cl)cc3)n12)NCC1CCCO1 (centres undefined)
83 | 810 s | COC(=O)c1cc(OCC(=O)Nc2ccc(F)cc2)c2cc(OC)ccc2n1
84 | 890 s | O=C(Nc1cccc(Br)c1)C1CC(=O)N(CCc2c[nH]c3ccc(F)cc23)C1 (centres undefined)
85 | 618 s | Cc1ccc2[nH]c(=O)c(CCC(=O)NC(C)c3cn(C)nc3C)cc2c1 (centres undefined)
86 | 650 s | CC1(C)CC(=O)c2cn(-c3ccc(Cl)cc3)c(=O)c(C(=O)N3CCN(c4ccccn4)CC3)c2C1
87 | 683 s | Cc1cccc(NS(=O)(=O)c2cc(-c3[nH]ncc3C(=O)N3CCOCC3)oc2C)c1

Row | Compound | RP-LC retention time
88 | Fc1ccc(C(OCCN2CCN(CCCc3ccccc3)CC2)c2ccc(F)cc2)cc1 | 957 s
89 | O=C(CN1CCCC1=O)NCc1ccc(F)c(Cl)c1 | 667 s
